molecular target: T1, BRD4(BD1) (Homo sapiens, UniProt O60885); experiment: HTRF assay on robot-synthesised focused library (Example 4 bis); format: binding; settings: Table 2 bis; focused library without intermediary purification; read-out: HTRF (IC50, μM), effect on BRD4(BD1) activity
T1 construct: a BRD4(BD1) synthetic gene that includes a TEV cleavage site was purchased from LifeTechnology; made in house
Experimental: (§1) The Accelerator Synthetizer SLT100 allows the efficient synthesis of the focused library in 96 well plates that can be directly transferred to a Labcyte Access/Echo® Laboratory Workstation to assess the compounds for their ability to disrupt bromodmain/histone complexes using the homogeneous time-resolved fluorescence (HTRF®) technology (IC50 μM).
as §1, with “After” for “The Accelerator Synthetizer SLT100 allows”, “with the Accelerator Synthetizer SLT100, the focused library has been” for “that can be”, “μM, table 2bis).” for “μM).”

Compound	IC50 [µM]
CCCCn1c(=O)[nH]c(=O)c2c1nc(CSc1nc3nc(C)c(CCC(=O)O)c(C)n3n1)n2CC [Compound 33]	8.5
CCCCn1c(=O)[nH]c(=O)c2c1nc(CSc1nc3nc(C)c(CC(=O)O)c(C)n3n1)n2CC [Compound 34]	44.5
CCCCn1c(=O)[nH]c(=O)c2c1nc(CSc1nc3ccc(C(=O)O)cc3o1)n2CC [Compound 35]	19.2
CCCCn1c(=O)[nH]c(=O)c2c1nc(CSc1nc3cc(C(=O)O)ccc3o1)n2CC [Compound 36]	3
CCCCn1c(=O)[nH]c(=O)c2c1nc(CSc1nc3cc(S(=O)(=O)CC)ccc3o1)n2CC [Compound 37]	16.6

molecular target: T1, BRD4(BD1); experiment: HTRF assay, disruption of bromodomain/histone peptide interaction; format: binding; settings: HTRF; mean ± SD of three experiments; Table 2; read-out: IC50 μM, effect on BRD4(BD1) activity
Experimental: HTRF assays were performed in white 384 Well Small Volume™ HiBase Polystyrene Microplates (Greiner) with a total working volume of 20 μL. Compounds were dispensed, with 200 nL per well (1% final DMSO), from a concentration stock of 1 mM in 100% DMSO and with serial DMSO dilutions, using a Mosquito Crystal pipetting robot platform (TTP labtech). The IC50 measurements were performed in triplicates (Table 2 and 3). All HTRF reagents were purchased from CisBio Bioassays and reconstituted according to the supplier protocols. For each assay 14.7 μL of mix 1 (protein+peptide) is added in the assay wells, containing previously dispensed inhibitors, according to the final concentration and buffer described in Table 4, using a Biomek NX MC pipetting robot (Beckman). Then, 5.1 μL of mix 2 (donnor+acceptor) is added. HTRF signals were measured, after a final incubation (overnight at room temperature), using a PHERAstar FS (BMG Labtech) with an excitation filter at 337 nm and fluorescence wavelength measurement at 620 and 665 nm, an integration delay of 60 μs and an integration time of 500 μs. Results were analyzed with a two-wavelengths signal ratio: [intensity (665 nm)/intensity (620 nm)]*10^4. Percentage of inhibition was calculated using the following equation: % inhibition=[(compound signal)−(min signal)]/[(max signal)−(min signal)]*100, where ‘max signal’ is the signal ratio with the compound vehicle alone (DMSO) and ‘min signal’ the signal ratio without peptide.
For Isothermal Titration Calorimetry (ITC) and crystallogenesis, BRD4(BD1) was produced and purified using a histidine tag affinity chromatography as described by Filipakopoulos et al.9 For these experiments, a pNIC28-BSA4 expression vector containing BRD4(BD1) and a Tobacco Etch Virus (TEV) protease cleavage site have kindly been provided by Stefan Knapp laboratory from the SGC at the University of Oxford. After size exclusion chromatography, the fractions presenting pure BRD4(BD1) after TEV cleavage of the histidine tag were pooled and concentrated to 25 mg/mL for crystallogenesis. For ITC assays, the protein was concentrated up to at 6 mg/mL and the DTT was removed using a buffer exchange column (PD10 from GE healthcare) equilibrated with 10 mM HEPES pH=7.5, 150 mM NaCl. For Homogeneous Time Resolved Fluorimetry (HTRF) experiments, a BRD4(BD1) synthetic gene that includes a TEV cleavage site was purchased from LifeTechnology in a pDONR transport vector before cloning into a pDESTTM15 expression vector for GST affinity purification. Protein production and purification was carried out using similar protocols and buffers as used for the His-BRD4(BD1) system. Purification was carried on GST affinity resin (Thermo Scientific) and reduced glutathione was used for protein release. GST-BRD4(BD1) was further purified by size exclusion chromatography on a Superdex 16/60 Hiload column (GE Healthcare) using 20 mM TRIS pH=8.0, 150 mM NaCl Buffer.

Compound	IC50 [µM]
Nc1nc2nc[nH]c2c(=O)[nH]1 [Compound 1a]	> 100
Cn1cnc2nc(N)[nH]c(=O)c21 [Compound 1b]	> 100
CCn1cnc2[nH]c(N)nc(=O)c21 [Compound 1c, 7-ethylguanine]	> 100
Nc1nc2nc[nH]c2c(=S)[nH]1 [Compound 2a]	> 100
O=c1[nH]c(=O)c2[nH]cnc2[nH]1 [Compound 2b, xanthine]	> 100
Cn1cnc2[nH]c(=O)[nH]c(=O)c21 [Compound 2c]	> 100
CCn1cnc2[nH]c(=O)[nH]c(=O)c21 [Compound 3a, 7-Ethylxanthine]	> 100
CC(C)Cn1cnc2[nH]c(=O)[nH]c(=O)c21 [Compound 3b]	> 100
CCn1cnc2[nH]c(NC(=O)OC(C)(C)C)nc(=O)c21 [Compound 3c]	> 100
O=c1[nH]c(=O)n(Cc2ccc(Cl)cc2)c2nc[nH]c12 [Compound 4a]	> 100
CCn1cnc2c1c(=O)[nH]c(=O)n2C [Compound 4c]	> 100
CCn1cnc2c1c(=O)[nH]c(=O)n2CC [Compound 5a]	70.3
CCn1cnc2c1c(=O)[nH]c(=O)n2C(C)C [Compound 5b]	52.5
CCn1cnc2c1c(=O)[nH]c(=O)n2CC(C)C [Compound 5c]	> 100
CCn1cnc2c1c(=O)[nH]c(=O)n2Cc1ccc(Br)cc1 [Compound 6c]	2.6
CCn1cnc2c1c(=O)[nH]c(=O)n2Cc1ccc(C(C)(C)C)cc1 [Compound 7b]	2.6
CCCCn1c(NC(=O)OC(C)(C)C)nc(=O)c2c1ncn2CC [Compound 7c]	17.9
CCn1cnc2c1c(=O)nc(NC(=O)OC(C)(C)C)n2Cc1ccc(Cl)cc1 [Compound 8a]	> 100
CCn1cnc2c1c(=O)nc(NC(=O)OC(C)(C)C)n2C(=O)OC(C)(C)C [Compound 8b]	> 100
CCCCn1c(N)nc(=O)c2c1ncn2CC [Compound 8c]	10.7
CCn1cnc2c1c(=O)nc(N)n2Cc1ccc(Cl)cc1 [Compound 9a]	> 100
Cn1c(-c2ccc(Cl)cc2)nc2c1c(=O)[nH]c(=O)n2Cc1ccccc1 [Compound 10c]	> 100
O=c1[nH]c(=O)c2[nH]c(Br)nc2[nH]1 [Compound 11b]	> 100
O=c1[nH]c(=O)n(Cc2ccc(Cl)cc2)c2nc(Br)[nH]c12 [Compound 11c]	> 100
CCn1c(Br)nc2[nH]c(=O)[nH]c(=O)c21 [Compound 12a]	> 100
CCn1c(Br)nc2c1c(=O)[nH]c(=O)n2Cc1ccc(Cl)cc1 [Compound 12b]	< 100
CCCCn1c(=O)[nH]c(=O)c2c1nc(Cl)n2CC [Compound 12c, 3-Butyl-8-chloro-7-ethylxanthine]	> 100
CCn1c(S)nc2c1c(=O)[nH]c(=O)n2C [Compound 14c]	< 100

Compound	IC50 [µM]
CCCCn1c(=O)[nH]c(=O)c2c1nc(S)n2CC [Compound 15a, 3-butyl-7-ethyl-8-mercaptoxanthine]	35.1
CCn1c(SC)nc2c1c(=O)[nH]c(=O)n2C [Compound 15c]	100
O=C(O)CCSc1nc2c([nH]1)c(=O)[nH]c(=O)n2Cc1ccc(F)cc1 [Compound 16a]	> 100
CCCCn1c(=O)[nH]c(=O)c2[nH]c(CO)nc21 [Compound 17a, 3-Butyl-8-hydroxymethylxanthine]	> 100
O=c1[nH]c(=O)n(Cc2ccc(Cl)cc2)c2nc(CO)[nH]c12 [Compound 17b]	> 100
CCCCn1c(=O)[nH]c(=O)c2c1nc(CO)n2C [Compound 17c]	> 100
CCCCn1c(=O)[nH]c(=O)c2c1nc(CO)n2CC [Compound 18a, 3-Butyl-7-ethyl-8-hydroxymethylxanthine]	> 100
CCCCn1c(=O)[nH]c(=O)c2c1nc(CO)n2CCC [Compound 18b]	> 100
CCn1c(CO)nc2c1c(=O)[nH]c(=O)n2Cc1ccccc1 [Compound 18c]	> 100
CCn1c(CO)nc2c1c(=O)[nH]c(=O)n2Cc1ccc(Cl)cc1 [Compound 19a]	93.3
CCCCn1c(=O)[nH]c(=O)c2c1nc(CCl)n2CC [Compound 19c, 3-butyl-8-chloromethyl-7-ethylxanthine]	> 100
CCn1c(CSc2nc[nH]n2)nc2c1c(=O)[nH]c(=O)n2Cc1ccc(Cl)cc1 [Compound 21a]	45.6
CCCCn1c(=O)[nH]c(=O)c2c1nc(CSc1n[nH]c(N)n1)n2CC [Compound 21b, 8-(5-Amino-1H-[1,2,4]triazol-3-ylsulfanylmethyl)-3-butyl-7-ethyl-3,7-dihydro-purine-2,6-dione]	89.1
CCCCn1c(=O)[nH]c(=O)c2c1nc(CSc1nc3ccccc3[nH]1)n2CC [Compound 22b]	> 100
CCn1c(CSc2nc3ccccc3[nH]2)nc2c1c(=O)[nH]c(=O)n2Cc1ccc(Cl)cc1 [Compound 23a]	> 100
CCCCn1c(=O)[nH]c(=O)c2c1nc(CSc1cc3ccccc3[nH]1)n2CC [Compound 23b]	> 100
CCn1c(CSc2cc3ccccc3[nH]2)nc2c1c(=O)[nH]c(=O)n2Cc1ccc(Cl)cc1 [Compound 24a]	> 100
CCCCn1c(=O)[nH]c(=O)c2c1nc(CSc1nc3nc(C)cc(C)n3n1)n2CC [Compound 24b]	69.6
CCCCn1c(=O)[nH]c(=O)c2c1nc(CSc1nc3nc(CC)cc(CC)n3n1)n2CC [Compound 25b]	46.6
CCCCc1c(C)nc2nc(SCc3nc4c(c(=O)[nH]c(=O)n4Cc4ccc(Cl)cc4)n3C)nn2c1C [Compound 27a]	100
CCCCc1c(C)nc2nc(SCc3nc4c(c(=O)[nH]c(=O)n4Cc4ccc(Cl)cc4)n3CC(C)C)nn2c1C [Compound 28a]	> 100
CCCCn1c(=O)[nH]c(=O)c2c1nc(Sc1nc3nc(C)cc(C)n3n1)n2CC [Compound 28b, 3-Butyl-8-(5,7-dimethyl-[1,2,4]triazolo[1,5-a]pyrimidin-2-ylsulfanyl)-7-ethyl-3,7-dihydro-purine-2,6-dione]	> 100
CCn1c(Sc2nc3nc(C)cc(C)n3n2)nc2c1c(=O)[nH]c(=O)n2Cc1ccc(Cl)cc1 [Compound 29a]	> 100
CCc1cc(CC)n2nc(Sc3nc4c(c(=O)[nH]c(=O)n4Cc4ccc(Cl)cc4)n3CC)nc2n1 [Compound 30a]	18.3
CCCCc1c(C)nc2nc(Sc3nc4c(c(=O)[nH]c(=O)n4Cc4ccc(Cl)cc4)n3CC)nn2c1C [Compound 31a]	46.8
CCCCc1c(C)nc2nc(CSc3nc4c(c(=O)[nH]c(=O)n4Cc4ccc(Cl)cc4)n3CC)nn2c1C [Compound 31b]	59.6
CCCCc1c(C)nc2nc(CSc3nc4c(c(=O)[nH]c(=O)n4CCCC)n3CC)nn2c1C [Compound 32a, 3-Butyl-8-(6-butyl-5,7-dimethyl-[1,2,4]triazolo[1,5-a]pyrimidin-2-ylmethylsulfanyl)-7-ethyl-3,7-dihydro-purine-2,6-dione]	54

Reference: patent US11225481B2 (Centre national de la recherche scientifique, priority 2015, dated 2022)
